Source: patent US20200371122A1, “BIOMARKER FOR SENESCENT CELLS” (Buck Institute for Research on Aging, priority 2017, published 2020)

Tests used:
[1] = system: C57BL6/J and p16-3MR mice injured with bleomycin; assay: Bleomycin-induced pulmonary fibrosis in mice; format: in vivo, mouse
Experimental: RNA was extracted from cells or tissues using commercially available kits (Isolate II—Bioline for cells; Direct-zol—Zymo for tissues) according to the manufacturer's instructions. cDNA synthesis was performed using a High Capacity cDNA Reverse Transcription Kit (Thermo Fisher) according to the manufacturer's instructions. Quantitative PCR was performed on a LightCycler 480 II (Roche) using primers and probes designed for the Universal Probe Library. Primers and probes used for human transcripts were ACTB: 5′-CCAACCGCGAGAAGATGA (SEQ ID NO:1), 5′-TCCATCACGATGCCAGTG (SEQ ID NO:2), Probe #64; TUBA: 5′-cttcgtctccgccatcag (SEQ ID NO:3), 5′-ttgccaatctggacacca (SEQ ID NO:4), Probe #58; ALOX5: 5′-[…] (SEQ ID NO:5), 5′-[…] (SEQ ID NO:6), Probe #64; ALOX5AP: 5′-ggtctgcggggctacttt (SEQ ID NO:7), 5′-[…] (SEQ ID NO:8), Probe #18; ALOX12: 5′-[…] (SEQ ID NO:9), 5′-agccaggtcgtcaggag (SEQ ID NO:10), Probe #32; ALOX15: 5′-[…] (SEQ ID NO:11), 5′-[…] (SEQ ID NO:12), Probe #76; ALOX15B: 5′-[…] (SEQ ID NO:13), 5′-actgggaggcgaagaagg (SEQ ID NO:14), Probe #51; AKR1C1: 5′-catgcctgtcctgggattt (SEQ ID NO:15), 5′-[…] (SEQ ID NO:16), Probe #49; AKR1C2: 5′-ctatgcgcctgcagaggt (SEQ ID NO:17), 5′-[…] (SEQ ID NO:18), Probe #31; AKR1C3: 5′-[…] (SEQ ID NO:19), 5′-[…] (SEQ ID NO:20), Probe #78; CYSLTR2: 5′-[…] (SEQ ID NO:21), 5′-[…] (SEQ ID NO:22), Probe #18; DPEP1: 5′-gacgtcctgaggctggtg (SEQ ID NO:23), 5′-[…] (SEQ ID NO:24), Probe #9 (SEQ ID NO:25), ELOVL2: 5′-[…] (SEQ ID NO:26), 5′-[…] (SEQ ID NO:27), Probe #53; ELOVL4: 5′-catttggcccatggattc (SEQ ID NO:28), 5′-[…] (SEQ ID NO:29), Probe #31; ELOVL5: 5′-cccttccatgcgtccata (SEQ ID NO:30), 5′-[…] (SEQ ID NO:31), Probe #31; EPHX2: 5′-ttctgctggacaccctgaa (SEQ ID NO:32), 5′-[…] (SEQ ID NO:33), Probe #45; GPX4: 5′-ttcccgtgtaaccagttcg (SEQ ID NO:34), 5′-[…] (SEQ ID NO:35), Probe #36; LTA4H: 5′-ctgctctcacggtccagtc (SEQ ID NO:36), 5′-[…] (SEQ ID NO:37), Probe #64; LTBR2: 5′-[…] (SEQ ID NO:38), 5′-[…] (SEQ ID NO:39), Probe #33; LTC4S: 5′-[…] (SEQ ID NO:40), 5′-[…] (SEQ ID NO:41), Probe #18; PTGDS: 5′-[…] (SEQ ID NO:42), 5′-[…] (SEQ ID NO:43), Probe #36; PTGES: 5′-agagatgcctgcccacag (SEQ ID NO:44), 5′-tggccaccacgtacatctt (SEQ ID NO:45), Probe #4; PTGES2: 5′-[…] (SEQ ID NO:46), 5′-[…] (SEQ ID NO:47), Probe #49; PTGES3 (SEQ ID NO:48), 5′-[…] (SEQ ID NO:49), 5′-[…] (SEQ ID NO:50), Probe #48; PTGIS: 5′-[…] (SEQ ID NO:51), 5′-[…] (SEQ ID NO:52), Probe #45; PTGR1: 5′-atgatggggcagcaagtg (SEQ ID NO:53), 5′-cccatcagaaatggagtgc (SEQ ID NO:54), Probe #64; PTGS1: 5′-[…] (SEQ ID NO:55), 5′-gtggtggtccatgttcctg (SEQ ID NO:56), Probe #81; PTGS2: 5′-gatccccagggctcaaac (SEQ ID NO:57), 5′-[…] (SEQ ID NO:58), Probe #61; TBXAS1: 5′-[…] (SEQ ID NO:59), 5′-tgcctcccgtgtgaatct (SEQ ID NO:60), Probe #73; AREG: 5′-[…] (SEQ ID NO:61), 5′-[…] (SEQ ID NO:62), Probe #73; CCL2: 5′-AGTCTCTGCCGCCCTTCT (SEQ ID NO:63), 5′-GTGACTGGGGCATTGATTG (SEQ ID NO:64), Probe #40; CCL27: 5′-[…] (SEQ ID NO:65), 5′-gctgggtggcagtaggaat (SEQ ID NO:66), Probe #18; CXCL1: 5′-[…] (SEQ ID NO:67), 5′-[…] (SEQ ID NO:68), Probe #52; HGF: 5′-[…] (SEQ ID NO:69), 5′-[…] (SEQ ID NO:70), Probe #49; ILIA: 5′-[…] (SEQ ID NO:71), 5′-[…] (SEQ ID NO:72), Probe #6; IL1B: 5′-[…] (SEQ ID NO:73), 5′-[…] (SEQ ID NO:74), Probe #78; IL6: 5′-[…] (SEQ ID NO:75), 5′-gaaggcagcaggcaacac (SEQ ID NO:76), Probe #45; IL8: 5′-[…] (SEQ ID NO:77), 5′-atggttccttccggtggt (SEQ ID NO:78), Probe #72; IL10: 5′-[…] (SEQ ID NO:79), 5′-[…] (SEQ ID NO:80), Probe #67; MMP3: 5′-[…] (SEQ ID NO:81), 5′-[…] (SEQ ID NO:82), Probe #36; PDGFA: 5′-[…] (SEQ ID NO:83), 5′-[…] […]

[2] = system: C57BL6/J and p16-3MR mice injured with bleomycin; assay: Bleomycin-induced pulmonary fibrosis in mice; format: in vivo, mouse; remark: listed apart in the source
IL-6 secretion = assay: IL-6 ELISA on non-senescent cells treated with prostaglandins; format: cell-based, human; conditions: 10 μM, 10 days
Experimental: Human fetal lung fibroblasts (IMR-90) were cultured in Dulbecco's modified eagle medium (DMEM) supplemented with 10% FBS and penicillin/streptomycin. LL 29 (AnHa) cells were obtained from the ATCC and growth to confluence using the ATCC protocol, but were subcultured as described for IMR-90 before initiation of all experiments. Quiescence was induced by replacing culture media with media containing 0.2% FBS. MCF-7 and MDA-MB-231 breast cancer cells were cultured in RPMI supplemented with 10% FBS and penicillin/streptomycin. All cells were cultured at 3% O2, and used between 25 and 40 population doublings. All cells were mycoplasma free.
3×10^4 cells in 12-well plates were treated as indicated in the text, and cultured in 0.5-1 ml serum-free DMEM for 24 hr. CM were collected and clarified at 2,000×g for 10 min. Supernatants were transferred to a tube; cells were trypsinized and counted. CM (2.5 μl) were analyzed by bead-based ELISAs (AlphaLISA, Perkin-Elmer) as instructed by the manufacturer and normalized to cell number.

[3] = bleomycin-treated animals, day 14, ELISA

Compound	RNA levels of p16INK4a and p21WAF1 in lungs ([1]; 14 days after bleomycin injury)	collagen expression (Col3a1 and Col4a1) ([1]; bleomycin-injured mice, 21 days after injury as printed)	mRNA levels of Alox5, Ltc4s, Ptgs2, Ptgds, and Ptges in lungs ([1]; bleomycin-injured mice, day 14)	histological staining of lungs with picrosirius red ([2]; 21 days after bleomycin)	collagen content (hydroxyproline) ([2]; 21 days after injury)	cysteinyl leukotrienes in bronchioalveolar lavage fluid (BALF) [2, 3]	prostaglandin E2 in bronchioalveolar lavage fluid (BALF) [2, 3]	phosphorylation of cPLA2 ([2]; bleomycin-treated mice, lung, day 14)	IL-6 secretion (IL-6 secretion)
CC1(C)CCC(c2ccc(Cl)cc2)=C(CN2CCN(c3ccc(C(=O)NS(=O)(=O)c4ccc(N[C@H](CCN5CCOCC5)CSc5ccccc5)c(S(=O)(=O)C(F)(F)F)c4)cc3)CC2)C1 [ABT-263, 4-[4-[[2-(4-chlorophenyl)-5,5-dimethylcyclohexen-1-yl]methyl]piperazin-1--yl]-N-[4-[[(2R)-4-morpholin-4-yl-1-phenylsulfanylbutan-2-yl]amino]-3-(tri-fluoromethylsulfonyl)phenyl]sulfonylbenzamide]	significantly attenuated	reduced	lowered these levels to those of PBS-treated animals	attenuation of the fibrotic response	reduced	reduced	reduced	lowered	–
CCCCC[C@H](O)/C=C/[C@H]1C=CC(=O)[C@@H]1C/C=C\CCCC(=O)O [PGA2]	–	–	–	–	–	–	–	–	elevated
